The source made the active and inactive calls. No cut-off for these calls is given here.
How the values were obtained:
LS174T [1] = experiment: Antiproliferative activity against human LS174T cells assessed as effect on Bcl-2 protein level at 20 to 60 uM incubated for 1 day by western blotting analysis; format: functional, cell-based; settings: dose 20-60 µM
[2] = target: T1, Ubiquitin carboxyl-terminal hydrolase isozyme L3 (Homo sapiens) (UniProt P15374); experiment: Inhibition of UCHL3 (unknown origin) expressed in Escherichia coli BL21 (DE3) using Ub-AMC as substrate at 5 uM by fluorescence based analysis
T1 sequence (whole entry): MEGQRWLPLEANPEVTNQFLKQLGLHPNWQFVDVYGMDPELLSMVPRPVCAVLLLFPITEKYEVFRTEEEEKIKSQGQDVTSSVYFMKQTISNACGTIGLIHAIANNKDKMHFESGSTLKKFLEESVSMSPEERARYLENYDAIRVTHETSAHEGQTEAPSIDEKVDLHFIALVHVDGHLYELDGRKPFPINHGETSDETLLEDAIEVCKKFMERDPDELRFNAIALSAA

[3] = target: T2, Ubiquitin carboxyl-terminal hydrolase 25 (Homo sapiens) (UniProt Q9UHP3); experiment: Inhibition of USP25 in human HCT-116 cells assessed as downregulation of Tankyrase 1/2 protein level; format: cell-based
T2 sequence (whole entry): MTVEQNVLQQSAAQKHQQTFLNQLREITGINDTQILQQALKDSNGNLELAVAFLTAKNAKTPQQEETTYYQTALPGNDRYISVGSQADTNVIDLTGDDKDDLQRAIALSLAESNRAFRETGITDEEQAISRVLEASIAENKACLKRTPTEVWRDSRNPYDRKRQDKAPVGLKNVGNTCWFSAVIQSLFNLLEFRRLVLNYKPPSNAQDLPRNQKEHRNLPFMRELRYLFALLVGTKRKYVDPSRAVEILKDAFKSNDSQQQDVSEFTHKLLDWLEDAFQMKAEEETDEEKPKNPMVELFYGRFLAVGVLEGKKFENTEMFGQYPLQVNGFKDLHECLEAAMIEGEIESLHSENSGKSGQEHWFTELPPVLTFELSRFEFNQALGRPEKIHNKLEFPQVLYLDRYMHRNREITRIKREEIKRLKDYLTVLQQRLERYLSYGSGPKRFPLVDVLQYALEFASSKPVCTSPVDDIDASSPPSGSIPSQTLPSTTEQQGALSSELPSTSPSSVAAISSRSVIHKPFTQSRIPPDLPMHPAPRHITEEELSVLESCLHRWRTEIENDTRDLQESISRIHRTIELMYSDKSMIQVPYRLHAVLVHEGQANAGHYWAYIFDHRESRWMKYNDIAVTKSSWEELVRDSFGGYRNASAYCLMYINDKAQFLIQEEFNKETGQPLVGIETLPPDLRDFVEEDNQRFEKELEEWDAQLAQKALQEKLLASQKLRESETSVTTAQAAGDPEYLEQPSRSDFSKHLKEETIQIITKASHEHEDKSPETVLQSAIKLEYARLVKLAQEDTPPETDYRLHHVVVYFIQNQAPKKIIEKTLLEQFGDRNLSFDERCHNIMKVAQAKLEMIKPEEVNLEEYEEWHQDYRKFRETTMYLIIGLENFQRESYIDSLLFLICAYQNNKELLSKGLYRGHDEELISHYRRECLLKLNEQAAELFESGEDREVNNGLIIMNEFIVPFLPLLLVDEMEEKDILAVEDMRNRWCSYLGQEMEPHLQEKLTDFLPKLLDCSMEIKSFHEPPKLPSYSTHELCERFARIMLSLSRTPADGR

LS174T [4] = experiment: Antiproliferative activity against human LS174T cells assessed as cell growth inhibition at 10 to 30 uM incubated for 3 days in presence of Regorafenib by SRB assay; format: functional, cell-based; settings: dose 10-30 µM, time 3.0 day
HCT-116 = experiment: Antiproliferative activity against human HCT-116 cells assessed as cell growth inhibition incubated for 3 days by SRB assay; format: functional, cell-based; settings: HCT-116, 72 h
[5] = target: T2, Ubiquitin carboxyl-terminal hydrolase 25 (Homo sapiens); experiment: Inhibition of USP25 (unknown origin) expressed in Escherichia coli BL21 (DE3) using Ub-AMC as substrate at 5 uM by fluorescence based analysis
[6] = target: T3, Ubiquitin carboxyl-terminal hydrolase 2 (Homo sapiens) (UniProt O75604); experiment: Inhibition of USP2 (258 to 605 residues) (unknown origin) expressed in Escherichia coli BL21 (DE3) using Ub-AMC as substrate at 5 uM by fluorescence based analysis
T3 sequence (whole entry): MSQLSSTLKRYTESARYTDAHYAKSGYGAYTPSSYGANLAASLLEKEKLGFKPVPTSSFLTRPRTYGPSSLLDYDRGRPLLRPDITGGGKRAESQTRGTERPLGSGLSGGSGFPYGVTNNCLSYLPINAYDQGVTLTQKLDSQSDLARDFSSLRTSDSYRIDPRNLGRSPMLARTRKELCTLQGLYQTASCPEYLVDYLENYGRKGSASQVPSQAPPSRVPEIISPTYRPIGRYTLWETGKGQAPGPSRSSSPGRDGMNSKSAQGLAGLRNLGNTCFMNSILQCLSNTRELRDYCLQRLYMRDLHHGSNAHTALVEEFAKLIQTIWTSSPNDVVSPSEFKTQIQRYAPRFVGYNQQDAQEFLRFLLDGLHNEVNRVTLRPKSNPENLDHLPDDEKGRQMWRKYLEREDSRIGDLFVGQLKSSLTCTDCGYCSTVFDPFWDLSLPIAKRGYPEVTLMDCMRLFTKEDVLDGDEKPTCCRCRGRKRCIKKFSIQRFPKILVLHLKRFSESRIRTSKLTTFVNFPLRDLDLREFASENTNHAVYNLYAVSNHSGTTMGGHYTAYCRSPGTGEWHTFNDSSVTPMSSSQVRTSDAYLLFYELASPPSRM

[7] = target: Ubiquitin carboxyl-terminal hydrolase 9X (Homo sapiens) (UniProt Q93008); experiment: Inhibition of USP9X (1151 to 1970 residues) (unknown origin) expressed in Escherichia coli BL21 (DE3) using Ub-AMC as substrate at 5 uM by fluorescence based analysis
Chain of Ubiquitin carboxyl-terminal hydrolase 9X (Homo sapiens) (Q93008 whole entry, the tested form may be a part): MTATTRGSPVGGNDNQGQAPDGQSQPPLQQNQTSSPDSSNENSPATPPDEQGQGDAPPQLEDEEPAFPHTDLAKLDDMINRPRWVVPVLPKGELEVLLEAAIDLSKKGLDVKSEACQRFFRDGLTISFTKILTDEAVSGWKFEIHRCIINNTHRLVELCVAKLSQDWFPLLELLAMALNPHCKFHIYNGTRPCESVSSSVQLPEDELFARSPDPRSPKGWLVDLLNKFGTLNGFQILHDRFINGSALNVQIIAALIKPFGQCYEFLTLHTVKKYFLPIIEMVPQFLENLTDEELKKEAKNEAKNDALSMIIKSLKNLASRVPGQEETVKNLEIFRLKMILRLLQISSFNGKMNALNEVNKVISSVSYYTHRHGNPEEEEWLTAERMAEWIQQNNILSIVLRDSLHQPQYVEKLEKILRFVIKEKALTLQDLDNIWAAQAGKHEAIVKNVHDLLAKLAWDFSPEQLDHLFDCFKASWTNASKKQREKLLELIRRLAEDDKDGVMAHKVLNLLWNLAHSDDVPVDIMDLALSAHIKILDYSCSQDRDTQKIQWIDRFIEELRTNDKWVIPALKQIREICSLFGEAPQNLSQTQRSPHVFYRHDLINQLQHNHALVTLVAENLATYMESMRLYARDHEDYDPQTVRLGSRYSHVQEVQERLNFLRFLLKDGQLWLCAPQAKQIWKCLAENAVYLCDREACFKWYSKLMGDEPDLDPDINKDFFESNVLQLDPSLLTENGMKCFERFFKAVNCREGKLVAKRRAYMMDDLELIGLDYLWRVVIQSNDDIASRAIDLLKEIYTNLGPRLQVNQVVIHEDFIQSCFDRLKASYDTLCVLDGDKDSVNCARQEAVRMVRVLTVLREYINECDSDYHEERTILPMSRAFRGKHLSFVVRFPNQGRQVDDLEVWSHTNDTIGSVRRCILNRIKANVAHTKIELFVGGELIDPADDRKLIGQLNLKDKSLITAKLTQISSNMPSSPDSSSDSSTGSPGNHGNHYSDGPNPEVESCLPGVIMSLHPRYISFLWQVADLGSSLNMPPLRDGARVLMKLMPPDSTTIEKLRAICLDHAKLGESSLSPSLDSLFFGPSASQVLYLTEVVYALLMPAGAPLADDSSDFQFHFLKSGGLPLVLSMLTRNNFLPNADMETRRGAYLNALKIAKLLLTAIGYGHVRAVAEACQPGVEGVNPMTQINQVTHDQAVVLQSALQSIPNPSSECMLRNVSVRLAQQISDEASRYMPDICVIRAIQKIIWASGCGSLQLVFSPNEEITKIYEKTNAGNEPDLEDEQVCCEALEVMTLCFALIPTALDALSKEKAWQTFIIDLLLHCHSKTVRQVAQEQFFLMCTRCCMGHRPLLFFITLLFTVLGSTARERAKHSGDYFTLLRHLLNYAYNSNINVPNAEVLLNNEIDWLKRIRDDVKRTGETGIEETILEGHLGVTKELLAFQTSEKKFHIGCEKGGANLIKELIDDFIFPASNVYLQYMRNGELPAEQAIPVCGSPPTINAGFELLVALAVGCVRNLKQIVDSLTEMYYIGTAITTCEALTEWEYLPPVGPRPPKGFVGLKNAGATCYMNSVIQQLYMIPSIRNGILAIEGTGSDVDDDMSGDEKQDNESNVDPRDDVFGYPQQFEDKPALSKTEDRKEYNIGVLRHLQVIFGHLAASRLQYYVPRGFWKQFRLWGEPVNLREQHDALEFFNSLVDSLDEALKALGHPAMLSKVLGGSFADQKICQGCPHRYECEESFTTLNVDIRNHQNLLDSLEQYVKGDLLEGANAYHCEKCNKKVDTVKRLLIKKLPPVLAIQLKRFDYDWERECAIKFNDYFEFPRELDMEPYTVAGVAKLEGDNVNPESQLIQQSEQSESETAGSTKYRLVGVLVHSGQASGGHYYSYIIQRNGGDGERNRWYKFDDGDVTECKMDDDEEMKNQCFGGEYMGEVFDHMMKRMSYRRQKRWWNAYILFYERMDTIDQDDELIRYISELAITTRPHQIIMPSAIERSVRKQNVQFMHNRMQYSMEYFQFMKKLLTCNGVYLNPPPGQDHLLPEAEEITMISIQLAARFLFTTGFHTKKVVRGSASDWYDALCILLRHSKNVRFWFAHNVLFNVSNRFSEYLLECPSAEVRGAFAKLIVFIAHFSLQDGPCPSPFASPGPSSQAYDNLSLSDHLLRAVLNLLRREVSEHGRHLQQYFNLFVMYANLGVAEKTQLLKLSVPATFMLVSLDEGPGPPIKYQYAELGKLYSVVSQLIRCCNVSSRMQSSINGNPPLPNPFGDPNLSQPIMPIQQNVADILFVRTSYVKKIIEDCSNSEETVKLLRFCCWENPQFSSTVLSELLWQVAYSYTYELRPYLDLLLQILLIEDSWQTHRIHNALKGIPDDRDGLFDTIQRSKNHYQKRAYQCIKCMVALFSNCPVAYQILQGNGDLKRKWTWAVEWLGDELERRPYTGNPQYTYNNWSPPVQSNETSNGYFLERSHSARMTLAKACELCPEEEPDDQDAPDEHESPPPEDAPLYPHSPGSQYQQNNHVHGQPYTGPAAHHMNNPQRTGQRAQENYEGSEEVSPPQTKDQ

| Compound | Activity (LS174T [1]) | inhibition [2] | inhibition [3] | Activity (LS174T [4]) | IC50 (HCT-116) [µM] | inhibition [5] | inhibition [6] | inhibition [7] |
| --- | --- | --- | --- | --- | --- | --- | --- | --- |
| CS(=O)(=O)c1ccc(C(=O)Nc2ccc(Cl)c(-c3ccc4c(c3)CCNC4)c2)c(Cl)c1 | inactive | Active | Active | Active | 24.2 | Active | Active | Active |
| CS(=O)(=O)c1ccc(C(=O)Nc2ccc(Cl)c(-c3ccc4c(c3)CNC4)c2)c(Cl)c1 | inactive | Active | Active | Active | 38.1 | Active | Active | Active |
| CS(=O)(=O)c1ccc(C(=O)Nc2ccc(Cl)c(-c3ccc(C4(N)CC4)cc3)c2)c(Cl)c1 | inactive | Active | Active | Active | 26 | Active | Active | Active |
